Read-outs that look alike come from different tables or passages of the source.
Biological target: T1, human TAS2R44 bitter taste receptor (Homo sapiens, UniProt P59538, L162M)
T1 construct: The TAS2R44 construct contains RSS tag, TAS2R44, and the HSV tag which are fused in frame; expressed in transfected cells; host or cells: HEK293T cells stably expressing Galpha16-gustducin44
T1 sequence (P59538 with tags, fused parts or gaps L162M): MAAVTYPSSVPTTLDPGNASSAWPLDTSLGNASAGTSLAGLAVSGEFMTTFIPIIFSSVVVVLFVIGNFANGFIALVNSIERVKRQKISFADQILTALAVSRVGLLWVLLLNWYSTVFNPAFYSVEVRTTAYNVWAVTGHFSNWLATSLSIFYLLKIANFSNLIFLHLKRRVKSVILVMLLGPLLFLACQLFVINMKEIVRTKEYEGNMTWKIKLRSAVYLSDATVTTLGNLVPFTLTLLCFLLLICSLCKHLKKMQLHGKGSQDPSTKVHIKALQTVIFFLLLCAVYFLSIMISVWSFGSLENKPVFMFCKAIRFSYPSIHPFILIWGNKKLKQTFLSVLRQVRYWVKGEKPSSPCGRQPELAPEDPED
Assay: TAS2R44 bitter taste receptor Fluo-4 calcium assay for IC50 determination
Assay type: cell-based
Experimental: A taste receptor screen and concentration-response analysis was performed and from results inhibitory concentration (IC) IC50 values can be calculated by nonlinear regression using the function f(x)=(a−d)/(1+(x/C)^nh)+d; with a=minimum signal, d=maximum signal, nh=hill coefficient, C=IC50 and x=concentration of antagonist. IC50 is the molar concentration of an antagonist which produces 50% of the maximum possible inhibitory response for that antagonist.
TAS2R44 Bitter Taste Receptor Assay for IC 50 Determination
The full length gene of human TAS2R44 was amplified by polymerase chain reaction (PCR) using gene-specific primers that span the entire coding region as described in WO 2004/029087.
The TAS2R44 cDNA was subcloned into an expression cassette based on either of the following plasmids/expression vectors: pcDNA3.1Zeo (Invitrogen). These vectors contain within their multiple cloning sites the nucleotide sequence coding for the first 45 amino acids of the rat somatostatin receptor subtype 3 (RSS tag) to facilitate cell surface targeting of the transgene (SEQ ID #4) and the nucleotide sequence coding for the herpes simplex virus (HSV) glycoprotein D epitope (HSV epitope in aminoterminal to carboxyterminal direction, HSV tag). (SEQ ID #3) for facilitating immunocytochemical detection.
The TAS2R44 construct contains RSS tag, TAS2R44, and the HSV tag which are fused in frame to allow translation into the receptor protein and the resulting receptor cDNA.
This transfected expression vector is called pcDNA3.1Zeo-TAS2R44 (SEQ ID #1) and allows for expression of the TAS2R44 protein (SEQ ID #2).
A cell line that stably expresses the human bitter taste receptor (TAS2R44) was generated by transfecting pcDNA3.1Zeo-TAS2R44 into HEK293T/Gα16-gustducin 44 cells (both formed as described in under 1) above). The host cell line HEK-293T is commercially available from the American […] (catalog #CRL-1573).
On day 0, the HEK293T Gα16-gustducin44 cells were seeded in a 6-well plate at a density of 900,000 cells per well and grown over night in selective growth medium (DMEM with 10% (v/v) heat-inactivated fetal bovine serum, 2 mM L-glutamine, 100 units/ml penicillin, 100 μg/ml streptomycin, 200 μg/ml G418 and 200 μg/ml zeocin). On day 1, the medium was exchanged with 2 ml of antibiotic-free and serum-free growth medium. 10 μl Lipofectamine 2000 was dissolved in 250 μl DMEM and incubated for 5 minutes at room temperature. In parallel, 4 μg TAS2R44 vector DNA were dissolved in 250 μl DMEM. These two resulting solutions are mixed and incubated for 20 minutes at room temperature before they are added to the cells into the cell culture medium. After 4 hours, the medium is replaced with antibiotic-free, serum-containing growth medium.
Fluo-4_AM (Invitrogen) is a fluorescent indicator of intracellular calcium dynamics (change in concentration) and allows monitoring changes in the calcium concentration, particularly an increase in response to receptor activation occurring after agonist exposure.
At day 0, the HEK293T cell line stably expressing Gα16-gustducin44 and TAS2R44 formed as described under 2) was seeded in antibiotic-free growth medium (standard DMEM with 10% (v/v) heat-inactivated fetal bovine serum, 2 mM L-glutamine […]) into black wall/clear bottom 96-well plates, coated with poly(ethylenimine) (0.005% v/v) at a concentration of 15,000 cells per well and incubated for 48 hours in humidified atmosphere (37° C., 5% CO2).
At the time of the assay, the growth medium was discarded and the cells were further incubated in a humidified atmosphere (37° C., 5% CO2) for 1 hour with 50 μl of loading buffer consisting of 1.5 μM Fluo-4 AM and […] (Sigma-Aldrich) in DMEM. […]

[1] = agonist not stated, read-out: IC50 when tested with the TAS2R44 bitter taste receptor
[2] = Acesulfame K (0.8 mM) as agonist, same range as example 3
[3] = saccharin (0.5 mM) as agonist, HEK293T cells expressing Gα16-gustducin44 and TAS2R44, read-out: IC50

Q: For `CC(C)CCC[C@H]1CC[C@@H](C(=O)O)CC1` [cis-4-(4-methylpentyl)cyclohexanecarboxylic acid], which IC50 [1] is on record?
A: 0.1 to 20 µM

Q: Which IC50 [1] does the source give for `O=C(O)[C@H]1CC[C@@H](Cc2ccccc2)CC1` [cis-4-benzylcyclohexanecarboxylic acid] here?
A: 0.1 to 20 µM

Q: For `O=C(O)[C@H]1CC[C@@H](c2ccccc2)CC1` [cis-4-phenylcyclohexanecarboxylic acid], which IC50 [1] is on record?
A: 0.1 to 20 µM

Q: How did the IC50 [1] turn out when `CCC[C@]12CC[C@](C(=O)O)(CC1)CC2` [cis-4-propylbicyclo[2.2.2]octane-1-carboxylic acid] was run?
A: 0.1 to 20 µM

Q: Which IC50 [2] does the source give for `CCC[C@H]1CC[C@@H](C(=O)O)CC1` [cis-4-propylcyclohexanecarboxylic acid] here?
A: within the same range

Q: And the IC50 [1]?
A: 0.1 to 20 µM

Q: What about the IC50 [3] of the same compound?
A: 0.05 to 25 µM

Q: For `CCC(C)[C@H]1CC[C@@H](C(=O)O)CC1` (stereo partly drawn) [cis-4-sec-butylcyclohexanecarboxylic acid], which IC50 [1] is on record?
A: 0.1 to 20 µM

Q: Which results are given for `CC(C)(C)[C@H]1CC[C@@H](C(=O)O)CC1` [cis-4-tert-butylcyclohexanecarboxylic acid]?
A: IC50 [2]: within the same range; IC50 [1]: 0.1 to 20 µM; IC50 [3]: 0.05 to 25 µM

— patent publication US10172378B2, “Mono- or bicyclic carboxylic acids as off-note blockers” (Givaudan, S.A., priority 2007, dated 2019)
